Reference: ChEMBL document CHEMBL1129191, “Syntheses of trans-3-substituted-CCG-IV analogs and their characterization to ionotropic glutamate receptors” (Bioorg Med Chem Lett, 1996)

Assays:
[1] = biological target: Glutamate receptor ionotropic, AMPA (Rattus norvegicus, UniProt P19490+P19491+P19492+P19493)
Description: Compound was evaluated for the inhibition of [3H]AMPA binding to Ionotropic glutamate receptor AMPA from rat brain synaptic membrane.

[2] = biological target: Glutamate NMDA receptor; experiment: Compound was evaluated for the inhibition of [3H]CGS-19,755 binding to NMDA receptor from rat brain synaptic membrane.

In the case of COC[C@H]1[C@H](C(=O)O)[C@@H]1[C@H](N)C(=O)O, the IC50 [1] is reported as 4 µM and the IC50 [2] is reported as 50 µM.
For C=C(C)[C@H]1CN[C@H](C(=O)O)[C@H]1CC(=O)O [KAINIC ACID], the IC50 [2] was greater than 100 µM.
With N[C@H](C(=O)O)[C@@H]1[C@@H](COCc2ccccc2)[C@@H]1C(=O)O the IC50 [1] was greater than 100 µM and the IC50 [2] was 21 µM.
C=C1C[C@@H]([C@H](N)C(=O)O)[C@@H](C(=O)O)C1 showed an IC50 [1] of 7.5 µM and an IC50 [2] greater than 100 µM.
CC[C@H]1[C@H](C(=O)O)[C@@H]1[C@H](N)C(=O)O was tested, and the IC50 [1] was 2 µM and the IC50 [2] was 2 µM.
In the case of C=C[C@H]1[C@H](C(=O)O)[C@@H]1[C@H](N)C(=O)O, the IC50 [1] is reported as 4 µM and the IC50 [2] is reported as 1.2 µM.
Work on CN[C@H](CC(=O)O)C(=O)O [N-METHYL-D-ASPARTIC ACID (NMDA)] yielded an IC50 [1] greater than 100 µM and an IC50 [2] of 5.5 µM.
N[C@H](C(=O)O)[C@@H]1C[C@@H]1C(=O)O gave an IC50 [2] of 0.0052 µM.
